Experiments:
[1] = test system: U2OS cells; test: Cell Painting Assay (CPA); format: cell-based, human
Description: The described assay follows closely the method described by Bray et al.[15] Initially, 5 µL U2OS medium were added to each well of a 384-well plate (Revvity Phenoplate 384).
Subsequently, U2OS cell were seeded with a density of 1600 cells per well in 20 µL medium. The plate was incubated for 10 min at the ambient temperature, followed by an additional 4 h incubation (37 °C, 5% CO2). Compound treatment was performed with the Echo 520 acoustic dispenser (Beckman-Coulter) followed by incubation for 20 h (37 °C, 5% CO2). Subsequently, mitochondria were stained with Mito Tracker Deep Red (Thermo Fisher Scientific, Cat. No. M22426). The Mito Tracker Deep Red stock solution (1 mM) was diluted to a final concentration of 100 nM in prewarmed medium. The medium was removed from the plate leaving 10 µL residual volume and 25 µL of the Mito Tracker solution were added to each well. The plate was incubated for 30 min in darkness (37 °C, 5% CO2). To fix the cells […] of 18.5 % formaldehyde in PBS were added, resulting in a final formaldehyde concentration of […]. Subsequently, the plate was incubated for another 20 min in darkness (RT) and washed three times with 70 µL of PBS. (Agilent Washer Elx405). Cells were permeabilized by addition of 25 µL 0.1% Triton X-100 to each well, followed by 15 min incubation (RT) in darkness. The cells were washed three times with PBS leaving a final volume of 10 µL. To each well 25 µL of a staining solution were added, which contains 1% BSA, 5 µL/ml Phalloidin (Alexa594 conjugate, Thermo Fisher Scientific, A12381), 25 µg/ml Concanavalin A (Alexa488 conjugate, Thermo Fisher Scientific, Cat. No.
(Thermo Fisher Scientific, Cat. No. W11262) and 1.5 µM SYTO 14 solution (Thermo Fisher Scientific, Cat. No. S7576). The plate is incubated for 30 min (RT) in darkness and washed three times with 70 µl
PBS. After the final washing step, the PBS was not aspirated. The plates were sealed and centrifuged […]
The plates were prepared in triplicates with shifted layouts to reduce plate effects and imaged using a Micro XL High-Content Screening System (Molecular Devices) in 5 channels (DAPI: Ex350-400/ […]
The generated images were processed with the CellProfiler package (https://cellprofiler.org/, version 3.0.0) on a computing cluster of the Max Planck Society to extract 1716 cell features per microscope site. The data was then further aggregated as medians per well (9 sites -> 1 well), then over the three […]
Further analysis was performed with custom Python (https://www.python.org/) scripts using the Pandas (https://pandas.pydata.org/) and Dask (https://dask.org/) data processing libraries as well as the Scientific Python (https://scipy.org/) package (separate publication to follow).
From the total set of 1716 features, a subset of highly reproducible and robust features was determined using the procedure described by Woehrmann et al.[16] in the following way:
Two biological repeats of one plate containing reference compounds were analysed. For every feature, its full profile over each whole plate was calculated. If the profiles from the two repeats […]
set of 579 robust features out of the total of 1716 that was used for all further analyses.
The phenotypic profiles were compiled from the Z-scores of all individual cellular features, where the Z-score is a measure of how far away a data point is from a median value.
Specifically, Z-scores of test compounds were calculated relative to the Median of DMSO controls.
Thus, the Z-score of a test compound defines how many MADs (Median Absolute Deviations) the measured value is away from the Median of the controls as illustrated by the following formula:
z − score = […]
The phenotypic compound profile is then determined as the list of Z-scores of all features for one […]
(1 picture or pasted object on this page, not shown here)
In addition to the phenotypic profile, an induction value was determined for each compound as the […]
Induction [%] = number of features with abs. values > 3 […]

[2] = target: T1, HNRNPD (Homo sapiens, UniProt Q14103); test: PISA thermal profiling, K562 cell lysates; format: binding; conditions: K562 lysate, 30 µM, 15 min, n=3
T1 construct: endogenous in cells; host or cells: K562 cell lysate
Description: (§1) Experiments were performed as described earlier with few modifications. In short, 3 replicates of intact HepG2 cells were treated with 30 µM UNC0638, […] or corresponding volume of DMSO in medium-free experimental buffer for 60 min at 37 °C with end-over-end rotation. For lysates: Washed K562 cells were resuspended in medium-free experimental buffer and lysed by three freeze-thaw cycles. Lysate was centrifugated 20,000 × g for 20 min at 4 °C to remove cell debris. The cleared lysate was treated with 30 µM UNC0638, UNC0373 or corresponding volume of DMSO for 15 min at RT with end-over-end rotation. Each treated cell suspension or lysate was divided into 12 aliquots and subjected to a 12-step heat gradient from 44 °C to 64 °C. All the temperature points were pooled together to form […] individual samples. Soluble fraction was separated from precipitated proteins […]
(§2) by centrifugation at 30,000 × g for 20 min at 4 °C. The soluble fractions were collected to fresh tubes and further processed to be analysed with mass spectrometry. Sample handling, TMT labelling, LC-MS/MS analysis, protein identification and data analysis was performed as described earlier.[12] […]
(§3) Figure S3: Western blot of elution fractions after chemical pulldown with UNC0965 in MCF7 cell extract pre-incubated with indicated compounds (20 μM) or DMSO.
(§4) Figure S4: PISA thermal profiling results in K562 cell lysates. A) Volcano plots of UNC0638 and […]
(§5) Dashed lines represent amplitude > 0.05, < - 0.05 and log10(adjusted p-values) > 2 (two-sided two sample t-test, Benjamini-Hochberg corrected, n = 3).
(§6) 6,924 proteins were identified. B) UNC0737 stabilises CHKA stronger than UNC0638. […]

[3] = target: T2, R3HCC1L (Homo sapiens, UniProt Q7Z5L2); test: PISA thermal profiling, K562 cell lysates; format: binding; conditions: K562 lysate, 30 µM, 15 min, n=3
T2 construct: endogenous in cells; host or cells: K562 cell lysate
Description: as §1, §2, §3, §4, §5, §6

[4] = target: T3, RBBP8NL (Homo sapiens, UniProt Q8NC74); test: PISA thermal profiling, K562 cell lysates; format: binding; conditions: K562 lysate, 30 µM, 15 min, n=3
T3 construct: endogenous in cells; host or cells: K562 cell lysate
Description: as §1, §2, §3, §4, §5, §6

T1 sequence (Q14103 whole entry): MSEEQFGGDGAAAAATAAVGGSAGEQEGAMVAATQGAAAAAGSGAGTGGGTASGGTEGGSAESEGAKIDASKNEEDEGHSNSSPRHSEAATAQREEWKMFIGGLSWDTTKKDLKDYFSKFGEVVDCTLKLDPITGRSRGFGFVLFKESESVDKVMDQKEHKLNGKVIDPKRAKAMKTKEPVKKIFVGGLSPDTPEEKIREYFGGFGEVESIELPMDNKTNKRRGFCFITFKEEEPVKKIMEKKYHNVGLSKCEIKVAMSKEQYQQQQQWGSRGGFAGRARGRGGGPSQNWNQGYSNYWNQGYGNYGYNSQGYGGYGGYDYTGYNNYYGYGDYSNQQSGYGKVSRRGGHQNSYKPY
T3 sequence (Q8NC74 whole entry): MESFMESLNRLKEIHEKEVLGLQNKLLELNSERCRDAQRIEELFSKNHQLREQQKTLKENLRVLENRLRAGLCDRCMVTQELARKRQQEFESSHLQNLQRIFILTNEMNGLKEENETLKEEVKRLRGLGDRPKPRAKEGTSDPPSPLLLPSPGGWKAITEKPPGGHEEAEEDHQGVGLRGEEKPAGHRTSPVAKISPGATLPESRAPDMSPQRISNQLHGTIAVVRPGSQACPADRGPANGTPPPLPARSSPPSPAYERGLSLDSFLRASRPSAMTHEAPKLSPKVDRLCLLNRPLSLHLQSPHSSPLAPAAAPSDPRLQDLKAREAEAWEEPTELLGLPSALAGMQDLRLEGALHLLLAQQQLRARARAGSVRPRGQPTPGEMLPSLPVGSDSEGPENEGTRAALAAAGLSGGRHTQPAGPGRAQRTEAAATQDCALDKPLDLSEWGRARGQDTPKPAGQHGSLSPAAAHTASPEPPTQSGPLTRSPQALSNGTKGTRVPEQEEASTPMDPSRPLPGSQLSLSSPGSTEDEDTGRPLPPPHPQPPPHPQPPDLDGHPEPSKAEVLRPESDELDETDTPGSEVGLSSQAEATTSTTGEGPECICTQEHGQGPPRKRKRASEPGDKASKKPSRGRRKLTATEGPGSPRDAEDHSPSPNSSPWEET
T2 sequence (Q7Z5L2 1-184 isoform Q7Z5L2-3): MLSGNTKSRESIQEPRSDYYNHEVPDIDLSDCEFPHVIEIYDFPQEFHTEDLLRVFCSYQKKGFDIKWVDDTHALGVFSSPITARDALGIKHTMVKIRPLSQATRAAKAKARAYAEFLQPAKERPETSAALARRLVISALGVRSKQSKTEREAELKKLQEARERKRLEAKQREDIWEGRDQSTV

| SMILES | biosimilarity of UNC0638 and UNC0737 profiles (clustered together) [1] | Biol.Sim. (%) ([1]; Conc 3.00 μM) | Cell Count (%) ([1]; Conc 3.00 μM) | Ind. (%) (% of parameters with significant changes) ([1]; Conc 3.00 μM) | Cell Count (%) ([1]; Conc 5.00 μM) | Ind. (%) (% of parameters with significant changes) ([1]; Conc 5.00 μM) | Biol.Sim. (%) ([1]; Conc 5.00 μM, morphological fingerprint similarity (no value printed for UNC0737 5 μM)) | effect_CETSA_Lysate (PISA amplitude), HNRNPD [2] | effect_CETSA_Lysate (PISA amplitude), R3HCC1L [3] | effect_CETSA_Lysate (PISA amplitude), RBBP8NL [4] |
| --- | --- | --- | --- | --- | --- | --- | --- | --- | --- | --- |
| COc1cc2c(NC3CCN(C(C)C)CC3)nc(C3CCCCC3)nc2cc1OCCCN1CCCC1 [UNC0638] | > 90% | 91% | 93% | 73% | 86% | 83% | 96% | 0.387 | 0.239 | 0.217 |
| COc1cc2c(N(C)C3CCN(C(C)C)CC3)nc(C3CCCCC3)nc2cc1OCCCN1CCCC1 [UNC0737] | > 90% | 94% | 86% | 83% | 90% | 86% | – | 0.605 | 0.415 | 0.393 |

— publication PMC11811597, “Phenomics‐Based Discovery of Novel Orthosteric Choline Kinase Inhibitors” (Angewandte Chemie (International Ed. in English), 2025)
